Drawing on the RepoRT retention time repository (doi:10.1007/s11306-011-0298-z), this text covers LC retention time for 10 compounds.

The data set in a line: RP, Waters ACQUITY UPLC HSS T3, 100 × 2.1 mm, 1.8 µm, 30 °C, 0.3 mL/min, estimated dead time 0.73 min; A: water + 0.1% formic acid, pH 3; B: methanol + 0.1% formic acid, pH 3; gradient (min/%B) 0/0 6/0 56/100 60/100. The note with it: stereoisomer not certain.
For `CCCCCC(=O)O` [hexanoic acid], the LC retention time is 30.9 min.
In the case of `C=CC(C)(CCC=C(C)C)OC(=O)c1ccccc1` (stereo not given) [linalyl benzoate] it was 50.8 min; in that of `COc1ccc(-c2cc(=O)c3c(OC)c(OC)c(OC)cc3o2)cc1OC` [sinensetin], 39.3 min; in that of `CC(=O)NC(Cc1ccc(O)cc1)C(=O)O` (stereo not given) [N-acetyl tyrosine], 17.4 min.
In the case of `O=C(O)[C@@H]1CCCN1` [L-proline] it was 1.59 min; in that of `COc1cc(-c2oc3cc(=O)cc4oc(O)cc(c2OC2OC(CO)C(O)C(O)C2O)c43)cc(OC)c1O` (stereo not given) [oxovitisin A], 33.2 min; in that of `OCC1OC(O)C(O)C1O` [D-(-)-Ribose], 1.4 min.
As to `COc1cc(-c2[o+]c3cc(O)cc(OC4OC(CO)C(O)C(O)C4O)c3cc2OC2OC(CO)C(O)C(O)C2O)ccc1O` (stereo not given) [peonidin 3,5 diglucoside], the LC retention time was 20.2 min.
To `OCC1OC(OC2C(CO)OC(O)C(O)C2O)C(O)C(O)C1O` (stereo not given) [cellobiose] belongs 1.55 min.
To `C[C@@H](O)[C@H](N)C(=O)O` [L-threonine] belongs 1.3 min.
